Reference: patent US9802885B2, “Substituted cyclohexane compounds” (TAKASAGO INTERNATIONAL CORPORATION (USA), priority 2011, dated 2017)
Entries after “also recorded” stand apart in the source; their conditions may differ.

How the values were obtained:
[1] = Organoleptic properties of the compounds of Formulas I, II and III (Tables 1-3); settings: in vivo
Text: For example, the compounds of the presently disclosed subject matter impart cooling, warming, burning, tingling, numbing, salivating, musty, bitter, and/or astringent sensation. In addition, the compounds of the presently disclosed subject matter can impart tropical, fruity (e.g., berry), minty, phenolic, and vegetable (e.g., peppery) notes as well as creaminess and sweetness to flavor ingredients. The organoleptic properties of certain compounds of Formulas I, II, and III are described in Tables 1, 2, and 3, respectively.

trained evaluators [2] = test: Rated warming level of hot and spicy flavor composition in water, swish and spit (Example 17); type: in vivo
Method: Each evaluator was asked to rate the warming level in the mouth on a scale of 1-9 over a 5 minute period after swishing & spitting the sample.

trained evaluators [3] = test: Enhancement of the warming effect of vanillyl butyl ether (VBE), heat intensity and preference (Example 20); type: in vivo
Method: Compound 1 was tested for its synergistic enhancement of the warming effect from pungent compound vanillyl butyl ether (VBE). A stock solution of 1% VBE in ethanol was prepared. This stock solution was then added at 0.2% in water to produce a 20 ppm tasting solution (Control). To subsequent 20 ppm tasting solutions was added 2.5 ppm of Compound 1 (Formula G) and 2.5 ppm WS-3 (Formula H). Ten trained evaluators were asked to rate heat intensity in the mouth and rank the three samples for preference after swishing and spitting the sample.

trained evaluators [4] = test: Tasting of wasabi-type flavor composition in water (Example 18); type: in vivo
Text: Formula C was selected as being preferred by 7 out of the 8 evaluators.

[5] = tested on: expertly trained evaluators; test: Rated cooling intensity of mouth-rinse composition (Example 21); type: in vivo
Method: Compound 8 was tested in the following mouth-rinse composition Formula J and evaluated over a 20 minute period by five expertly trained evaluators, compared to two other mint flavor compositions, a Control and Formula K that contains WS-3 as shown below. The compositions were each dissolved at 0.1% in the following mouth-rinse base (50 ppm dosage of Compound 8 & WS-3 respectively). The evaluators were asked to rate cooling intensity on a scale of 1-9 in the mouth at 0, 0.5, 1, 5, 10, and 20 minutes.

[6] = tested on: expertly trained evaluators; test: Tasting of mouthwatering composition in water (Example 19); type: in vivo; settings: 0.5% w/w Compound 10, 0.05% in water (2.5 ppm)
[7] = generally known; cited from earlier work

| SMILES | Organoleptic Properties [1] | also measured |
| --- | --- | --- |
| C=C(C)[C@@H]1CC[C@@H](C)C[C@H]1C(=O)NCC [Compound 1, (1R,2R,5R)—N-ethyl-5-methyl-2-(prop-1-en-2-yl)cyclohexanecarboxamide] | cooling, tingling, and numbing sensation | heat/warming perception compared to control Formula B (trained evaluators [2]; 0.5% w/w Compound 1): enhance the initial heat perception; heat/warming perception compared to control Formula B (trained evaluators [2]; 0.5% w/w Compound 1, listed as N-ethyl-5-methyl-2-(prop-1-en-2-yl)cyclohexanecarboxamide): enhances the warming perception; enhancement of the warming effect of pungent compounds compared to WS-3 (trained evaluators [3]): enhances the warming effect of pungent compounds much better |
| C=C(C)[C@@H]1CC[C@@H](C)C[C@H]1C(=O)NC1CC1 [Compound 2, (1R,2R,5R)—N-cyclopropyl-5-methyl-2-(prop-1-en-2-yl)cyclohexanecarboxamide] | slight cooling, salivating | – |
| C=C(C)[C@@H]1CC[C@@H](C)C[C@H]1C(=O)NC(C)C [Compound 3, (1R,2R,5R)—N-isopropyl-5-methyl-2-(prop-1-en-2-yl)cyclohexanecarboxamide] | slight cooling | – |
| C=C(C)[C@@H]1CC[C@@H](C)C[C@H]1C(=O)NC(C)(C)C [Compound 4, (1R,2R,5R)—N-(tert-butyl)-5-methyl-2-(prop-1-en-2-yl)cyclohexanecarboxamide] | slight burn, warming,; also recorded: irritation | – |
| C=C(C)[C@@H]1CC[C@@H](C)C[C@H]1C(=O)NC(C)CC (stereo partly drawn) [Compound 5, (1R,2R,5R)—N-(sec-butyl)-5-methyl-2-(prop-1-en-2-yl)cyclohexanecarboxamide] | bitter, cooling | – |
| C=C(C)[C@@H]1CC[C@@H](C)C[C@H]1C(=O)NCC(=O)OCC [Compound 6, (1R,2R,5R)-ethyl 2-(5-methyl-2-(prop-1-en-2-yl)cyclohexanecarboxamido)acetate] | bitter, cooling, irritation | – |
| C=C(C)[C@@H]1CC[C@@H](C)C[C@H]1C(=O)Nc1ccc(OC)cc1 [Compound 7, (1R,2R,5R)—N-(4-methoxyphenyl)-5-methyl-2-(prop-1-en-2-yl)cyclohexanecarboxamide] | musty, astringent, slight cooling | – |
| C=C(C)[C@@H]1CC[C@@H](C)C[C@H]1C(=O)Nc1ccc(CC#N)cc1 [Compound 8, (1R,2R,5R)—N-(4-(cyanomethyl)phenyl)-5-methyl-2-(prop-1-en-2-yl)cyclohexanecarboxamide] | phenolic, strong burning | burning sensation and character compared to control Formula D (trained evaluators [4]; 0.5% w/w Compound 8): more intense and lingering burning sensation; burning sensation and character compared to control Formula D (trained evaluators [4]; 0.5% w/w Compound 8, listed as N-(4-(cyanomethyl)phenyl)-5-methyl-2-(prop-1-en-2-yl)cyclohexanecarboxamide): improved lingering burning sensation; cooling perception of the mouth-rinse composition compared to Control and WS-3 (Formula K) [5]: enhances and lengthens the cooling of a mouth-rinse composition better than WS-3 |
| C=C(C)[C@@H]1CC[C@@H](C)C[C@H]1OC(=O)CCC(=O)O [Compound 9, (1R,2S,5R)-4-((−5-methyl-2-(prop-1-en-2-yl)cyclohexyl)oxy)-4-oxobutanoic acid] | fruity, chemical, slight; also recorded: cooling/burn | – |
| C=C(C)[C@@H]1CC[C@@H](C)C[C@H]1OC(=O)CCCC(=O)O [Compound 10, (1R,2S,5R)-5-((−5-methyl-2-(prop-1-en-2-yl)cyclohexyl)oxy)-5-oxopentanoic acid] | sweet, fruity, slight; also recorded: cooling | mouthwatering effect compared to control Formula F [6]: extended cooling and increased astringency |
| C=C(C)[C@@H]1CC[C@@H](C)C[C@H]1OC(=O)C(C)O (stereo partly drawn) [Compound 11, (1R,2S,5R)-5-methyl-2-(prop-1-en-2-yl)cyclohexyl 2-hydroxypropanoate] | minty, bitter, cooling | – |
| C=C(C)[C@@H]1CC[C@@H](C)C[C@H]1OC(=O)CC(C)=O [Compound 12, (1R,2S,5R)-5-methyl-2-(prop-1-en-2-yl)cyclohexyl 3-oxobutanoate] | bitter, fruity | – |
| C=C(C)[C@@H]1CC[C@@H](C)C[C@H]1OC(=O)CC(C)O (stereo partly drawn) [Compound 13, (1R,2S,5R)-5-methyl-2-(prop-1-en-2-yl)cyclohexyl 3-hydroxybutanoate] | bitter, mild peppery | – |
| C=C(C)[C@@H]1CC[C@@H](C)C[C@H]1OCC(=O)O [Compound 14, (1R,2S,5R)-2-((5-methyl-2-(prop-1-en-2-yl)cyclohexyl)oxy)acetic acid] | creamy; also recorded: fruity, | – |
| C=C(C)[C@@H]1CC[C@@H](C)C[C@H]1OCC(=O)NCC(C)C [Compound 15, (1R,2S,5R)—N-isobutyl-2-((5-methyl-2-(prop-1-en-2-yl)cyclohexyl)oxy)acetamide] | bitter,; also recorded: tingle/; also recorded: burning | – |
| CCNC(=O)C1CC(C)CCC1C(C)C (centres unmarked) [WS-3, N-ethyl-5-methyl-2-isopropylcyclohexanecarboxamide] | – | sensation provided by menthyl analog [7]: clean cool |
